Results: US6793839B1, “Cucurbiturils and method for synthesis” (Unisearch Limited, priority 1999, dated 2004)

How the values were obtained:
[1] = uptake of carbon monoxide; type: binding
Source text: Accordingly, the invention further provides a method for removing carbon monoxide from a liquid or vapour containing carbon monoxide by contacting the liquid or vapour with cucurbit[5]uril.

[2] = solubility in acid and salt solutions; type: physicochemical; conditions: 0.1M Na2SO4 solution
Source text: All of the cucurbit[n]urils that have been observed are apparently soluble in acid solutions. Cucurbit[5 or 7 or 8 or 10]uril have been purified by successive recrystallisations from acid solutions. Because of the similar nature of the cucurbiturils, this is a slow process with more than 10 recrystallisations required to purify cucurbit[7]uril. As shown in the German patents cucurbit[6]uril can be obtained in a relatively pure state from a single recystallisation process.
The present invention provides a method for producing a range of cucurbit[n]urils and cucurbit[s,u]urils. The synthesis method results in the production of a number of cucurbit[n]urils and cucurbit[s,u]urils that have never before been produced or isolated. Separation is possible via chromatography and/or selective precipitation. The product cucurbit[n]urils and cucurbit[s,u]urils are stable to vigorous reaction conditions over a wide range of pH values. They are soluble in aqueous acid or aqueous salt solutions. The method gives cucurbiturils in much larger yields than previously possible. The use of templating compounds allows a degree of control over the relative amounts of the different cucurbit[n]urils being produced.

[3] = binding of dioxane in aqueous solutions
Source text: This dioxane binding properly can form the basis of processes for the removal of dioxane. According to a further aspect of the present invention, the present invention provides a process for removing dioxane from a fluid comprising contacting the fluid with cucurbit[6]uril and/or cucurbit[7]uril.

Compound | uptake of carbon monoxide [1] | dissolution in salt solution out of a mixture containing cucurbit[5-8]urils [2] | binding of dioxane [3]
O=C1N2CN3C(=O)N4CN5C(=O)N6CN7C(=O)N8CN9C(=O)N%10CN1C1C2N2CN%11C(=O)N(CN%12C(=O)N(CN%13C(=O)N(CN%14C(=O)N(CN1C2=O)C%10C9%14)C8C7%13)C6C5%12)C4C3%11 (centres unmarked) [cucurbit[5]uril] | has shown uptake of carbon monoxide | – | –
O=C1N2CN3C(=O)N4CN5C(=O)N6CN7C(=O)N8CN9C(=O)N%10CN%11C(=O)N%12CN1C1C2N2CN%13C(=O)N(CN%14C(=O)N(CN%15C(=O)N(CN%16C(=O)N(CN%17C(=O)N(CN1C2=O)C%12C%11%17)C%10C9%16)C8C7%15)C6C5%14)C4C3%13 (centres unmarked) [cucurbit[6]uril] | – | dissolving cucurbit[6 or 7]uril out of the complex mixture | bind dioxane
cucurbit[7]uril | – | dissolving cucurbit[6 or 7]uril out of the complex mixture | bind dioxane
